Holding throughout (type): physicochemical
Data set [1] is described as follows: HPLC chromatogram analysis of anastrazole for decomposition or modification products. Particulars: ethyl acetate/PLGA (75:25)/NaOH; encapsulated in the microparticles and then recovered; HPLC chromatograms. As to the method:
In order to indirectly estimate whether decomposition or modification products of anastrazole are produced during the preparation of microparticles using ethyl acetate/PLGA (75:25)/NaOH as in Example <8-1>, various samples were prepared (as in Example <8-1>) and their chromatograms were analyzed.

Data set [2] is described as follows: Anastrazole encapsulation ratio of PLGA microparticles (HPLC). Particulars: PLGA 7E/0.15 g + 4A 0.1 g; 60 mg of anastrazole; Ethyl formate; 6 mL of 10 M NaOH.
Test in data set [3]: as above
Particulars: 60 mg of anastrazole. Here is the method: Each of 7E, 4A and 2A polymers was dissolved in 4 mL of ethyl acetate. Then, 60 mg of anastrazole was dissolved to prepare a dispersed phase. The solution was added to 40 mL of 0.5% PVA aqueous solution and stirred. 5 mL of 10 M NaOH was added to the resultant o/w emulsion. After adding 40 mL of distilled water and stirring, microparticles were recovered by filtration. The microparticles were redispersed in 16 mL of 0.5% PVA aqueous solution. After adding distilled water to make 80 mL, the solution was stirred. After filtration, the microparticles were dried overnight in a vacuum dryer.
Similarly, microparticles encapsulating progesterone were prepared using ethyl formate instead of ethyl acetate and using 6 mL of 10 M NaOH.
Some of the microparticles prepared in Example <8-1> were accurately weighed and dissolved in 4 mL of tetrahydrofuran. After diluting 6 times with 50% acetonitrile, the solution was filtered using a 0.45 μm syringe filter to remove the PLGA precipitate. Some of the filtrate (20 μl) was subjected to HPLC (Shimadzu LC-20AD, Luna 5 m C18(2) column) for measurement of anastrazole concentration. Drug encapsulation ratio (%) was calculated using the equations given in Example <7-2>.

Where [4] appears, read: PLGA 2A/0.25 g, Ethyl acetate, 5 mL of 10 M NaOH.
The mark [5] stands for this setting: PLGA 4A/0.25 g, Ethyl acetate, 5 mL of 10 M NaOH.
Setting [6] is: PLGA 7E/0.15 g + 4A 0.1 g, Ethyl formate, 6 mL of 10 M NaOH.
The mark [7] stands for this setting: PLGA 7E/0.15 g + 4A/0.1 g, Ethyl acetate, 5 mL of 10 M NaOH.

In the case of `CC(C)(C#N)c1cc(Cn2cncn2)cc(C(C)(C)C#N)c1` [anastrazole], the “decomposition or modification products of anastrazole during the preparation of microparticles” value in data set [1] was “no decomposition or modification products of anastrazole are produced”. The “Encapsulation ratio (%) Batch 3” value in data set [2] is recorded as 65.5%; in data set [3] (setting [4]) it was 73.7%; in data set [3] (setting [5]), 77.6%; in data set [3] (setting [7]) it was 74.7%. The “Encapsulation ratio (%) Batch 1” value was 78.5% in data set [3] (setting [4]), 78.1% in data set [3] (setting [5]), 60.8% in data set [3] (setting [6]) and 75.3% in data set [3] (setting [7]). For the same molecule, the “Encapsulation ratio (%) Batch 2” value was 75.2% in data set [3] (setting [4]), 74.9% in data set [3] (setting [5]), 65.1% in data set [3] (setting [6]) and 73.8% in data set [3] (setting [7]).

Source of the values: patent publication US8697127B2, “Method for preparing microspheres and microspheres produced thereby” (Ewha University-Industry Collaboration Foundation, priority 2008, dated 2014).
